The target of series [1] is T1, Human recombinant C-terminal His-tag-HDAC8 (Homo sapiens, UniProt Q9BY41).
T1 construct: His (C); purchased BPS Bioscience 50008
T1 sequence (Q9BY41 1-377): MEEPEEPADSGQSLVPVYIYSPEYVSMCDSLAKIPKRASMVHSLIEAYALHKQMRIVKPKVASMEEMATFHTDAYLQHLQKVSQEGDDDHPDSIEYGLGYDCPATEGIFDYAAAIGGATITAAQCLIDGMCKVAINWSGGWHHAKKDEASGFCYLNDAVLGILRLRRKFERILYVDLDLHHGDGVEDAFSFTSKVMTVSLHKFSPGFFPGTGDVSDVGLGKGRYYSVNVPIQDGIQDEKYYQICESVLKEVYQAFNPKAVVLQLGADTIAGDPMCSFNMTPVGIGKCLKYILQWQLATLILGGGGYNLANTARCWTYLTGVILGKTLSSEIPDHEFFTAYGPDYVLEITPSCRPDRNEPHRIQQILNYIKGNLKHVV
In words: HDAC-Glo I/II bioluminogenic enzyme assay, HDAC8. The class given is biochemical. The note with it: mean ± SD of three independent experiments; read-out: HDAC Inhibition, IC50 ± SD, HDAC8.

The subject of another series is MDA-MB-231 tumor spheres. In words: 3D tumor sphere model, MTT and imaging. The note with it: for tumor sphere viability: 50 µM, 72 h, formed spheres. The class given is cell-based, human. How it is done:
MDA-MB-231 cells were seeded at a cell density of 1000 c/w in 100 μL of DMEM containing 10% FCS in a low-attachment NunclonSphera 96-well ultra-low attachment plate (Thermo Scientific Nunc™, Rochester, NY, USA), to form multicellular tumor spheres, for 4 days. The formation and growth of tumor spheres were examined and imaged with an Olympus CKX53 microscope, using a 10× objective. MDA-MB-231 tumor spheres were treated by carefully adding 50 μL of the medium with fresh nutrient medium for control spheres or with compound-supplemented medium (50 μM) for treated spheres for another 72 h. The cytotoxicity of compounds toward the MDA-MB-231 tumor spheres was investigated by MTT assay.
The formation and growth of tumor spheroids were examined and imaged with an Olympus CKX53 microscope, using 4x objective. The cytotoxicity of compounds toward the MDA-MB-231 tumor spheroids was investigated by MTT assay.

For series [2], the system named is MDA-MB-231 cells. Put plainly: Matrigel invasion assay. The class given is cell-based, human. The note with it: 24 h; 5 μM 8b, 10 μM 9b. As to the method: (§1) To determine MDA-MB-231 cell migration and invasion cell capacities, Corning® Costar® Transwell® cell culture inserts with 8.0 μm pore polycarbonate filters (Sigma Aldrich, CLS3464) and Corning™ BioCoat™ Matrigel™ Invasion Chamber with Corning Matrigel Matrix™ cell culture inserts (Thermo fisher scientific, Waltham, MA, USA) respectively were used. Briefly, 6 × 10^4 cells in 200 μL were seeded in the upper chamber and the bottom chamber was filled with 800 μL of medium. After 24 h under indicated treatments, the remaining cells in the upper chamber were gently removed with a cotton swab, moistened with medium, and the inserts were carefully washed twice with 37 °C warmed PBS. Then, attached cells at the bottom side of the membrane were fixed by immersing in ice cold methanol for 2 min and stained with 0.1% crystal violet for 15 min at room temperature. Stained cells were photographed and quantified using NIH ImageJ software.

A short description of series [3]: Acute and developmental toxicity in zebrafish embryos. The note with it: wild type (AB), zebrafish (Danio rerio), in vivo, other: exposure of embryos in E3 medium, evaluated at 120 hpf; for LC50: embryos treated at 6 hpf; for EC50: teratogenicity, cardiotoxicity, hepatotoxicity, treated at 6 hpf. The class given is in vivo, Danio rerio. How it is done: (§2) Embryos of wild type (AB) and transgenic Tg(fli1:EGFP) and Tg(-2.8fabp10a:EGFP) zebrafish (Danio rerio) lines were kindly provided by Dr. Ana Cvejić (Wellcome Trust Sanger Institute, Cambridge, UK) and raised to adult stage in a temperature- and light-controlled zebrafish facility at 28 °C and standard 14–10 h light–dark photoperiod. Adult fish were regularly fed with commercial dry food (SDS300 granular food; Special Diet Services, Essex, UK; and TetraMinTM flakes, Tetra, Melle, Germany) twice per day and Artemia nauplii daily. All experiments involving zebrafish were performed in compliance with the European directive 2010/63/EU and the ethical guidelines of the Guide for Care and Use of Laboratory Animals of the Institute of Molecular Genetics and Genetic Engineering, University of Belgrade.
(§3) Toxicity evaluation of the tested compounds in the zebrafish model was carried out following the general rules of the OECD Guidelines for the Testing of Chemicals (OECD, 2013, Test No. 236), and procedures described in the literature. Briefly, wild type (AB) zebrafish produced by pair-wise mating were collected, washed of debris, and distributed into 24-well plates containing 10 embryos/well and 1 mL of E3 medium (5 mM NaCl, 0.17 mM KCl, 0.33 mM CaCl2, and 0.33 mM MgSO4·7H2O in distilled water), and raised at 28 °C.
(§4) To assess acute (lethality), inner organ, and developmental (teratogenicity) toxicity, the embryos at the 6 h post-fertilization (hpf) stage were treated with six different concentrations of each tested compound (100, 50, 25, 12.5, 6.25, and 3.13 µM). Stock solutions of test substances were made in DMSO. Embryo water and DMSO (0.25%) were used as negative and […] controls, respectively. The experiment was performed three times using 20 embryos per concentration. Treated embryos were inspected for 22 toxicological parameters (Table S2) every day by 120 hpf upon a stereomicroscope (Carl Zeiss™ Stemi 508 doc Stereomicroscope, Jena, Germany). Dead embryos were discarded every 24 h. At 120 hpf, embryos were anesthetized by addition of 0.1% (w/v) tricaine solution (Sigma-Aldrich, St. Louis, MO, USA), photographed, and killed by freezing at −20 °C for ≥24 h.

Series [4] concerns zebrafish (Danio rerio) embryos. Described as above. The class given is in vivo. The note with it: 50 µM. How it is done:
as §2, §3, §4

For series [5], the system named is MDA-MB-231 cells. In words: Bicameral (transwell) migration assay. The class given is cell-based, human. The note with it: 24 h; 5 μM 8b, 10 μM 9b. As to the method: as §1
The next series concerns MCF-7 cells. In words: Wound healing assay. The class given is cell-based. The note with it: Homo sapiens, MCF7, 24 h, read-out: inhibition of wound closure compared to control. As to the method: To determine MCF-7 cell migration properties, 1 × 10^5 cells were seeded in 24-well plates and cultured until confluent. Then, cell monolayers were scratched using a sterile 200 μL pipette tip, and cell cultures were allowed to grow for 24 h under the indicated treatments. At the end of incubation period, culture medium was removed and wells were washed twice with PBS, then, cells were fixed with ice-cold methanol and stained with 0.1% crystal violet. In addition, cell monolayers were fixed and stained just after scratching to represent zero time migration. Finally, cell migration into the scratch area was documented by inverted light microscopy and quantified using NIH ImageJ software.

What is called IC50 is the concentration needed to halve the response being measured. In the case of `O=C(CCCCCCN1CCN(C(c2ccccc2)c2ccccc2)CC1)NO` [Compound 7b, 7-(4-(diphenylmethyl)-piperazin-1-yl)-N-hydroxyheptanamide], the 50% inhibitory concentration (IC50) in series [1] was found to be 0.345 ± 0.017 µM. Also, the tumor sphere viability result with MDA-MB-231 tumor spheres (MTT) was “did not exhibit significant cytotoxic effects”. Further, in the series on MDA-MB-231 tumor spheres (co-culture 4 d, at higher concentrations), the sphere formation result was “inhibit sphere formation to some extent”.

As a reminder, the LC50 is the concentration that kills 50% of the test population. Read a high LC50 as lower toxicity. The term EC50 denotes the concentration giving half of the maximal effect. Lower therefore signals an effect from little substance. With `O=C(CCCCCCCN1CCN(C(c2ccccc2)c2ccccc2)CC1)NO` [Compound 8b, 8-(4-(diphenylmethyl)-piperazin-1-yl)-N-hydroxyoctanamide], the IC50 in series [1] was found to be 0.245 ± 0.002 µM. Moreover, in the series with MDA-MB-231 tumor spheres (Homo sapiens, MDA-MB-231, spheres formed 4 d, treated 72 h, MTT), the 50% inhibitory concentration (IC50) worked out at 50 µM. In addition, the “sphere formation and spheres viability” value in the series on MDA-MB-231 tumor spheres (co-culture 50 μM, 4 d in sphere culture conditions) is listed as “significantly inhibited”. In addition, the “anti-invasive property (% compared to control)” value in the series on MDA-MB-231 cells [2] is on record as 59%. Moreover, in series [3], the LC50 is above 100 µM and the EC50 stood at 79.5 µM. In addition, the “embryos with teratogenicity, cardio- or hepatotoxicity” value in series [4] was “none”.

By inhibition is commonly meant the relative decrease from the control value, in per cent. Consider `O=C(NO)c1ccc(CN2CCN(C(c3ccccc3)c3ccccc3)CC2)cc1` [Compound 9b, 4-(4-(diphenylmethyl)-piperazin-1-ylmethyl)-N-hydroxy-benzamide], for which the concentration for half-maximal inhibition (IC50) in series [1] came out at 0.708 ± 0.045 µM. Further, the tumor sphere viability entry in the series on MDA-MB-231 tumor spheres (MTT) is “did not exhibit significant cytotoxic effects”. In addition, in the series with MDA-MB-231 cells [5], the “anti-migratory property (% compared to control)” value was “did not reduce”. For the same molecule, the “anti-invasive property (% compared to control)” value with MDA-MB-231 cells [2] is on record as “did not reduce”. For the same molecule, the inhibition at 10 µM in the series with MCF-7 cells amounted to 63.9%. In series [3], the LC50 was above 100 µM and the response was half-maximal at 53.8 µM (EC50). For the same molecule, the “embryos with teratogenicity, cardio- or hepatotoxicity” value in series [4] is 32%.

The record behind these values is PMC9785542, “Discovery of 1-Benzhydryl-Piperazine-Based HDAC Inhibitors with Anti-Breast Cancer Activity: Synthesis, Molecular Modeling, In Vitro and In Vivo Biological Evaluation” (Pharmaceutics, 2022).
